This note sets out measurements from patent US20230138455A1, “METHODS OF DOSING OF APICAL SODIUM-DEPENDENT BILE ACID TRANSPORTER INHIBITORS (ASBTIs)” (Mirum Pharmaceuticals, Inc., priority 2021, published 2023).

Structures are written as SMILES. Counter-ions that a name gives are not always drawn.

The test system of series [1] is fecal bile acid (fBA) excretion. The series is described as follows: Effect of maralixibat on fecal bile acid (fBA) excretion in healthy dogs, dosing time relative to mealtime. The series is classed as in vivo. As to conditions: for increase in fBA excretion, change compared with pre-treatment value: day 7. Here is the method:
FIG. 4 is a bar graph of the effect of maralixibat (MRX) on fecal bile acid (fBA) in dogs: change in fBA excretion from pre-treatment to day 7. The PD impact of ASBTI dosing time to mealtime was investigated in healthy dogs (FIG. 3). […] P<0.01 versus pre-treatment, by one-tail paired t-test. Data are presented as ±SEM (n = 7-8). % = change compared with pre-treatment value. Groups were dosed at the indicated times. Fecal samples were taken 48 hours before treatment initiation and for the last 72 hours of the 7-day treatment period and analyzed for bile acid content.

The nature of series [2]: Phase 1 clinical study, incidence of GI TEAEs after Maralixibat 30 mg in fed versus fasted state. As to conditions: healthy participants. It is filed as in vivo, human. Here is the method: (§1) FIG. 2 is pie charts showing the proportion of healthy participants who experienced gastrointestinal (GI) treatment-emergent adverse events (AEs) following ASBTI administration at mealtime versus in the fasted state for each of the three studies. […] In each clinical study, the ASBTI was administered in both a fed and fasted state, and rates of GI AEs were compared.

Series [3] in a line: Phase 1 clinical study, incidence of GI TEAEs after Maralixibat 10 mg in fed versus fasted state. The series is classed as in vivo, human. As to conditions: healthy participants. On the procedure:
as §1

The nature of series [4]: Placebo-controlled trials in patients with ALGS, MRX dosed 30 mins prior to a meal, GI AE rates. It is filed as in vivo, human. The following applies: PBO-controlled trials, dosed in the fasted state 30 mins prior to a meal (PBO 44.4%). On the procedure: (§2) AE data from 3 separate phase 1 clinical studies on MRX and VLX in healthy participants were compiled to assess the impact of ASBTI dosing vs mealtime on GI AEs (Table 1, FIG. 1). In each clinical study, the ASBTI was administered in both a fed and fasted state, and rates of GI AEs were compared. Separately, AE data from placebo (PBO)-controlled trials in patients with ALGS, where MRX was dosed 30 mins prior to a meal, allows a comparison of GI AE rates for MRX vs PBO.

Series [5] in a line: Phase 1 clinical study, incidence of GI TEAEs after Volixibat 75 mg in fed versus fasted state. The series is classed as in vivo, human. As to conditions: healthy participants. Here is the method:
FIG. 1 depicts study designs, drugs (MRX = maralixibat, VLX = volixibat), doses and at mealtime/fasted timelines for certain embodiments according to the disclosure. *Fasting was started ≥10-12 hours before MRX dosing. ^‡Patients were randomized 1:1 to two cohorts and received sequentially fasted then at mealtime dosing, or at mealtime then fasted dosing.
FIG. 2 is pie charts showing the proportion of healthy participants who experienced gastrointestinal (GI) treatment-emergent adverse events (AEs) following ASBTI administration at mealtime versus in the fasted state for each of the three studies.
as §2

For the compound `CCCCC1(CCCC)CS(=O)(=O)c2ccc(N(C)C)cc2[C@@H](c2ccc(OCc3ccc(C[N+]45CCN(CC4)CC5)cc3)cc2)[C@H]1O` [Maralixibat, maralixibat], the “increase in fBA excretion, change compared with pre-treatment value” in series [1] (dosing 30 minutes prior to the meal) is recorded as 231%. Further, in series [1] (dosing 4 hours after the meal), the “increase in fBA excretion, change compared with pre-treatment value” turned out to be 229%. Further, in series [1] (regardless of dosing time relative to the daily meal, p<0.01 by paired t-test), the “fBA excretion vs pretreatment baseline” value was “significantly increased fBA excretion”. Further, in series [2] (Fasted (n=12)), the “Incidence of GI TEAEs: Abdominal pain, % of participants” value is recorded as 8%; the “Incidence of GI TEAEs: Abdominal pain, number of participants” value was 1; the “Incidence of GI TEAEs: Any GI TEAE, % of participants” value amounted to 50%; the “Incidence of GI TEAEs: Any GI TEAE, number of participants” value stood at 6. Besides, in series [2] (Fasted (n=12)), the “Incidence of GI TEAEs: Diarrhea, % of participants” value is 50% and the “Incidence of GI TEAEs: Diarrhea, number of participants” value is given as 6. In addition, in series [2] (Fed (n=12)), the “Incidence of GI TEAEs: Abdominal pain, % of participants” value was found to be 42%; the “Incidence of GI TEAEs: Abdominal pain, number of participants” value stood at 5; the “Incidence of GI TEAEs: Anorectal discomfort, % of participants” value came out at 8%; the “Incidence of GI TEAEs: Anorectal discomfort, number of participants” value is on record as 1. In series [2] (Fed (n=12)), the “Incidence of GI TEAEs: Any GI TEAE, % of participants” value turned out to be 100%; the “Incidence of GI TEAEs: Any GI TEAE, number of participants” value was 12; the “Incidence of GI TEAEs: Diarrhea, % of participants” value worked out at 92%; the “Incidence of GI TEAEs: Diarrhea, number of participants” value is 11. In addition, in series [2] (Fed (n=12)), the “Incidence of GI TEAEs: Nausea, % of participants” value came out at 25% and the “Incidence of GI TEAEs: Nausea, number of participants” value was determined as 3. In series [3] (Fasted (n=6)), the “Incidence of GI TEAEs: Any GI TEAE, % of participants” value is recorded as 0 (0%) and the “Incidence of GI TEAEs: Any GI TEAE, number of participants” value is recorded as 0 (0%). Moreover, in series [3] (Fed (n=6)), the “Incidence of GI TEAEs: Any GI TEAE, % of participants” value is 33%; the “Incidence of GI TEAEs: Any GI TEAE, number of participants” value was 2; the “Incidence of GI TEAEs: Diarrhea, % of participants” value stood at 17%; the “Incidence of GI TEAEs: Diarrhea, number of participants” value is given as 1. Also, in series [3] (Fed (n=6)), the “Incidence of GI TEAEs: Nausea, % of participants” value turned out to be 17% and the “Incidence of GI TEAEs: Nausea, number of participants” value was found to be 1. The “diarrhea reported, frequency in patients” value in series [4] is 43.6%.
For `CCCC[C@]1(CC)CS(=O)(=O)c2ccc(N(C)C)cc2[C@@H](c2cccc(NC(=O)N[C@@H]3O[C@H](COS(=O)(=O)O)[C@@H](O)[C@H](OCc4ccccc4)[C@H]3O)c2)[C@H]1O` [Volixibat, (2R,3R,4S,5R,6R)-4-benzyloxy-6-{3-[3-((3S,4R,5R)-3-butyl-7-dimethylamino-3-ethyl-4-hydroxy-1,1-dioxo-2,3,4,5-tetrahydro-1H-benzo[b]thiepin-5-yl)-phenyl]-ureido}-3,5-dihydroxy-tetrahydro-pyran-2-ylmethyl) hydrogen sulfate], in series [5] (Fasted (n=8)), the “Incidence of GI TEAEs: Any GI TEAE, % of participants” value is given as 0 (0%) and the “Incidence of GI TEAEs: Any GI TEAE, number of participants” value is 0 (0%). In addition, in series [5] (Fed (n=8)), the “Incidence of GI TEAEs: Any GI TEAE, % of participants” value was 75%; the “Incidence of GI TEAEs: Any GI TEAE, number of participants” value was 6; the “Incidence of GI TEAEs: Diarrhea, % of participants” value came to 50%; the “Incidence of GI TEAEs: Diarrhea, number of participants” value was 4. In series [5] (Fed (n=8)), the “Incidence of GI TEAEs: Loose stools, % of participants” value was 25% and the “Incidence of GI TEAEs: Loose stools, number of participants” value was found to be 2.
